± gives the standard deviation of the averaged measurements.
What was measured:
Test in all cases: relative viability vs DMSO control (72 h) (fraction); higher = more viable cells
SYO-1 = tested on: SYO-1
How it was run: (§1)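 Relative viability is percent growth read by ATPLite and averaged over up to triplicate wells. Sarcoma cells were seeded in 384-well plates to reach 80–90% confluence and given 2.5 µl of serially diluted compound after 24 h, from source plates of 10 mM to 0.0002 mM. Incubation lasted 72 h at 37 °C, 5% CO2, with 0.1% DMSO vehicle and a 5 µM positive control, and the data were rescaled so 1 equals full and 0 equals none.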

SK-LMS-1 = tested on: SK-LMS-1
How it was run: as §1

RD = tested on: RD
How it was run: as §1

HS729 = tested on: HS729
How it was run: as §1

SK-ES-1 = tested on: SK-ES-1
How it was run: as §1

A204 = tested on: A204
How it was run: as §1

VA-ES-BJ = tested on: VA-ES-BJ
How it was run: as §1

KHOS-NP = tested on: KHOS-NP
How it was run: as §1

SW872 = tested on: SW872
How it was run: as §1

MES-SA = tested on: MES-SA
How it was run: as §1

G401 = tested on: G401
How it was run: as §1

SW684 = tested on: SW684
How it was run: as §1

CN(C)C[C@@H]1CCn2cc(c3ccccc32)C2=C(C(=O)NC2=O)c2cn(c3ccccc23)CCO1 [Ruboxistaurin]
Conditions | relative viability
A204, 0.00017 µM | 1.08 ± 0.028
A204, 0.00051 µM | 1.07 ± 0.031
A204, 0.00152 µM | 1.08 ± 0.035
A204, 0.00457 µM | 1.06 ± 0.021
A204, 0.01372 µM | 1.06 ± 0.076
A204, 0.04115 µM | 1.08 ± 0.017
A204, 0.1235 µM | 1.03 ± 0.031
A204, 0.3704 µM | 1.05 ± 0.013
A204, 1.111 µM | 0.881 ± 0.047
A204, 3.333 µM | 0.808 ± 0.02
A204, 10 µM | 0.0478 ± 0.01
G401, 0.00017 µM | 1.03 ± 0.044
G401, 0.00051 µM | 1.01 ± 0.012
G401, 0.00152 µM | 0.988 ± 0.028
G401, 0.00457 µM | 1.01 ± 0.03
G401, 0.01372 µM | 1.02 ± 0.025
G401, 0.04115 µM | 0.961 ± 0.037
G401, 0.1235 µM | 1.02 ± 0.058
G401, 0.3704 µM | 1.01 ± 0.029
G401, 1.111 µM | 0.958 ± 0.025
G401, 3.333 µM | 0.938 ± 0.032
G401, 10 µM | 0.0283 ± 0.0042
HS729, 0.00017 µM | 0.917 ± 0.022
HS729, 0.00051 µM | 0.936 ± 0.043
HS729, 0.00152 µM | 0.8749 ± 0.0083
HS729, 0.00457 µM | 0.882 ± 0.031
HS729, 0.01372 µM | 0.895 ± 0.053
HS729, 0.04115 µM | 0.939 ± 0.081
HS729, 0.1235 µM | 0.894 ± 0.052
HS729, 0.3704 µM | 0.819 ± 0.03
HS729, 1.111 µM | 0.917 ± 0.028
HS729, 3.333 µM | 0.835 ± 0.052
HS729, 10 µM | 0.812 ± 0.056
KHOS-NP, 0.00017 µM | 1.09 ± 0.043
KHOS-NP, 0.00051 µM | 1.09 ± 0.029
KHOS-NP, 0.00152 µM | 1.06 ± 0.016
KHOS-NP, 0.00457 µM | 1.07 ± 0.036
KHOS-NP, 0.01372 µM | 1.06 ± 0.016
KHOS-NP, 0.04115 µM | 1.08 ± 0.027
KHOS-NP, 0.1235 µM | 1.073 ± 0.0097
KHOS-NP, 0.3704 µM | 1.093 ± 0.01
KHOS-NP, 1.111 µM | 1.1 ± 0.012
KHOS-NP, 3.333 µM | 1.073 ± 0.0091
KHOS-NP, 10 µM | 1.045 ± 0.0032
MES-SA, 0.00017 µM | 0.918 ± 0.032
MES-SA, 0.00051 µM | 0.909 ± 0.026
MES-SA, 0.00152 µM | 0.9276 ± 0.0087
MES-SA, 0.00457 µM | 0.9006 ± 0.0056
MES-SA, 0.01372 µM | 0.923 ± 0.058
MES-SA, 0.04115 µM | 0.91 ± 0.041
MES-SA, 0.1235 µM | 0.898 ± 0.034
MES-SA, 0.3704 µM | 0.887 ± 0.047
MES-SA, 1.111 µM | 0.84 ± 0.029
MES-SA, 3.333 µM | 0.7551 ± 0.0073
MES-SA, 10 µM | 0.428 ± 0.041
RD, 0.00017 µM | 1.09 ± 0.031
RD, 0.00051 µM | 1.09 ± 0.023
RD, 0.00152 µM | 1.11 ± 0.039
RD, 0.00457 µM | 1.12 ± 0.03
RD, 0.01372 µM | 1.11 ± 0.029
RD, 0.04115 µM | 1.1 ± 0.048
RD, 0.1235 µM | 1.12 ± 0.039
RD, 0.3704 µM | 1.1 ± 0.02
RD, 1.111 µM | 1.127 ± 0.011
RD, 3.333 µM | 1.08 ± 0.059
RD, 10 µM | 0.857 ± 0.12
SK-ES-1, 0.00017 µM | 1.03 ± 0.088
SK-ES-1, 0.00051 µM | 1.06 ± 0.023
SK-ES-1, 0.00152 µM | 1.07 ± 0.05
SK-ES-1, 0.00457 µM | 1.08 ± 0.037
SK-ES-1, 0.01372 µM | 1.07 ± 0.053
SK-ES-1, 0.04115 µM | 1.02 ± 0.056
SK-ES-1, 0.1235 µM | 1.01 ± 0.069
SK-ES-1, 0.3704 µM | 0.963 ± 0.042
SK-ES-1, 1.111 µM | 0.869 ± 0.031
SK-ES-1, 3.333 µM | 0.74 ± 0.008
SK-ES-1, 10 µM | 0.421 ± 0.016
SK-LMS-1, 0.00017 µM | 1.05 ± 0.053
SK-LMS-1, 0.00051 µM | 1.02 ± 0.031
SK-LMS-1, 0.00152 µM | 1.05 ± 0.042
SK-LMS-1, 0.00457 µM | 1.05 ± 0.025
SK-LMS-1, 0.01372 µM | 1.09 ± 0.016
SK-LMS-1, 0.04115 µM | 1.08 ± 0.024
SK-LMS-1, 0.1235 µM | 1.05 ± 0.038
SK-LMS-1, 0.3704 µM | 0.995 ± 0.037
SK-LMS-1, 1.111 µM | 0.922 ± 0.027
SK-LMS-1, 3.333 µM | 0.778 ± 0.029
SK-LMS-1, 10 µM | 0.4619 ± 0.0034
SW684, 0.00017 µM | 1.12 ± 0.04
SW684, 0.00051 µM | 1.157 ± 0.0021
SW684, 0.00152 µM | 1.158 ± 0.0044
SW684, 0.00457 µM | 1.17 ± 0.024
SW684, 0.01372 µM | 1.16 ± 0.051
SW684, 0.04115 µM | 1.11 ± 0.072
SW684, 0.1235 µM | 1.15 ± 0.051
SW684, 0.3704 µM | 1.16 ± 0.046
SW684, 1.111 µM | 1.14 ± 0.037
SW684, 3.333 µM | 1.15 ± 0.016
SW684, 10 µM | 0.857 ± 0.049
SW872, 0.00017 µM | 1 ± 0.033
SW872, 0.00051 µM | 1.04 ± 0.029
SW872, 0.00152 µM | 1.02 ± 0.036
SW872, 0.00457 µM | 1.06 ± 0.032
SW872, 0.01372 µM | 0.989 ± 0.027
SW872, 0.04115 µM | 1.04 ± 0.041
SW872, 0.1235 µM | 1.01 ± 0.018
SW872, 0.3704 µM | 1.02 ± 0.011
SW872, 1.111 µM | 0.9094 ± 0.005
SW872, 3.333 µM | 0.846 ± 0.057
SW872, 10 µM | 0.599 ± 0.064
SYO-1, 0.00017 µM | 0.962 ± 0.046
SYO-1, 0.00051 µM | 0.9554 ± 0.0086
SYO-1, 0.00152 µM | 0.962 ± 0.015
SYO-1, 0.00457 µM | 0.941 ± 0.045
SYO-1, 0.01372 µM | 0.931 ± 0.035
SYO-1, 0.04115 µM | 0.933 ± 0.034
SYO-1, 0.1235 µM | 0.899 ± 0.059
SYO-1, 0.3704 µM | 0.849 ± 0.087
SYO-1, 1.111 µM | 0.79 ± 0.038
SYO-1, 3.333 µM | 0.347 ± 0.036
SYO-1, 10 µM | -0.0266 ± 0.0088
VA-ES-BJ, 0.00017 µM | 0.988 ± 0.0023
VA-ES-BJ, 0.00051 µM | 0.999 ± 0.036
VA-ES-BJ, 0.00152 µM | 0.984 ± 0.027
VA-ES-BJ, 0.00457 µM | 0.988 ± 0.0079
VA-ES-BJ, 0.01372 µM | 0.982 ± 0.03
VA-ES-BJ, 0.04115 µM | 0.996 ± 0.035
VA-ES-BJ, 0.1235 µM | 0.9734 ± 0.0065
VA-ES-BJ, 0.3704 µM | 0.945 ± 0.051
VA-ES-BJ, 1.111 µM | 0.861 ± 0.044
VA-ES-BJ, 3.333 µM | 0.825 ± 0.043
VA-ES-BJ, 10 µM | 0.651 ± 0.0098

— the supplement of paper PMC10883282
